Here are results for seven compounds from US7557103B2, “Imidazopyridazine compounds” (Eli Lilly and Company, priority 2005, dated 2009).

As usually defined, the clearance is the rate of elimination divided by the concentration. As a reminder, the Ki is the dissociation constant of the complex between target and ligand, obtained from inhibition or displacement. The ED50 is the dose that gives a 50% effect, or the effect in half of the subjects. By inhibition is commonly meant the drop in the measured response relative to a control, in per cent.

Substitutions are numbered along the chain they refer to. Read-outs that look alike come from different tables or passages of the source.

A short description of data set [1]: Rat intravenous pharmacokinetics (volume of distribution, plasma clearance). The following applies: for clearance: male, Sprague-Dawley, plasma, iv, 3 mg/kg; for rat Vdist: single intravenous dose (3 mg/kg).
Method: (§1) To test for volume of distribution, Male Sprague Dawley rats (N=3) are administered a single 3 mg/kg intravenous dose of compound. Multiple plasma samples are collected at time points from 0.08 to 24 hours post-dose. The plasma samples are analyzed by LC/MS/MS to determine the plasma concentrations. Plasma pharmacokinetic calculations are performed to determine the pharmacokinetic parameters including Vdist and plasma clearance (Clp).
The target of the next data set is T1, human CRF1 (Homo sapiens, UniProt P34998).
T1 construct: expressed in transfected cells; membranes
T1 sequence (P34998 24-415): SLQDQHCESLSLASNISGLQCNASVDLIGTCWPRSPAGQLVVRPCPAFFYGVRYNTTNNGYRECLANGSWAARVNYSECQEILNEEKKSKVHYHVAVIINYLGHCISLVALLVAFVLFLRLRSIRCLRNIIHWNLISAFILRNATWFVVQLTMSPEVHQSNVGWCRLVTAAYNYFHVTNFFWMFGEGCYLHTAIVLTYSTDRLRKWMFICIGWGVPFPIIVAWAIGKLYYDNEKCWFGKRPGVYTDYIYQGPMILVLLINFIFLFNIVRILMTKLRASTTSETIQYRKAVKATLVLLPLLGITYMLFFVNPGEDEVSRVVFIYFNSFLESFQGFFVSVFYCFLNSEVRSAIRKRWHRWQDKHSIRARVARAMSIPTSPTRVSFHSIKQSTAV
Put plainly: CRF1 filter binding assay. The following applies: HEK-hCRF1 membranes, 125I-sauvagine; read-out: Ki (inhibition constant). The protocol:
The limitations of plasmid-based human CRF1 expression, in terms of generating a recombinant cell line with sufficient receptor density to develop a binding assay, are overcome by using a Phoenix retroviral expression system licensed from Stanford. The stable HEK-hCRF1 cell line is used to prepare membranes and binding reactions (200 μl) are set up as follows: 50 μl of ^125I-sauvagine (0.2 nM final), 50 μl compound and 100 μL CRF1 membrane (25 μg/reaction). The reactions are incubated at room temperature for 2 hours and then terminated by filtration through pre-treated FB Millipore glass fiber filter plates (96 well). The plates are wash twice with ice-cold assay buffer (50 mM tris, 12.5 mM NaCl, 1 mM EDTA, 10 mM MgCl2, 0.05% BSA, pH 7.2), air dried over night and counted with 100 μl Microscint 40 in a MicroBeta counter. Non-specific binding (NSB) is determined in the presence of 0.5 μM non-labeled sauvagine. Triplicate determinations are typically run and the median data points plotted by Graph Pad Prism.

A short description of the next data set: in vivo. The following applies: male, Sprague-Dawley, rat, iv, 3 mg/kg.
For data set [2] the following is noted: male, Sprague-Dawley, in vivo, iv, 3 mg/kg.
Method: as §1
The target of data set [3] is T2, binding of ^125I-sauvagine to the cerebellum (Rattus norvegicus, UniProt P35353).
T2 construct: from tissue; host or cells: rat cerebellum
T2 sequence (P35353 24-415): T1 sequence (P34998 24-415) with H6R, S9N, A13T, I16V, M153V, G163A, I209V, Y229H, H356R
In words: In vivo potency assessment using ex vivo binding. The settings on record: oral route, ex vivo binding of 125I-sauvagine to the cerebellum. On the procedure:
To assess in vivo potency, a compound of the present invention is evaluated using ex vivo binding. Using the procedures as provided in D. R. Gehlert et al., EJP 509: 145-153 (2005), a compound is administered to a rat via the oral route.

Another data set deals with T3, human CRF2 (Homo sapiens, UniProt Q13324).
T3 construct: expressed in transfected cells; membranes
T3 sequence (Q13324 1-411): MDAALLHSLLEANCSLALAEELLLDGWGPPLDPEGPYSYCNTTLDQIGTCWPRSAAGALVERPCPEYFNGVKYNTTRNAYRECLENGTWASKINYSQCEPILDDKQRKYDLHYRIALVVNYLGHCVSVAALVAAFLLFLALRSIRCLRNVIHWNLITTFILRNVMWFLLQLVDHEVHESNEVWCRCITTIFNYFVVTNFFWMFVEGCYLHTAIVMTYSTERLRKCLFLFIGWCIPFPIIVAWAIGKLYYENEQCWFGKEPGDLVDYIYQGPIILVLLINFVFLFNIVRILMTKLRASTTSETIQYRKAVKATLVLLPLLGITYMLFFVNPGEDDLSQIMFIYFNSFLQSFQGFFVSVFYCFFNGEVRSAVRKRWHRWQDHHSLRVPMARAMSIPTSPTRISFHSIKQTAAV
Put plainly: CRF2 filter binding assay. The settings on record: 50 μM compound, HEK-hCRF2 membranes, 125I-sauvagine; read-out: percent inhibition at 50 μM. On the procedure: The limitations of plasmid-based human CRF2 expression, in terms of generating a recombinant cell line with sufficient receptor density to develop a binding assay, are overcome by using a Phoenix retroviral expression system licensed from Stanford. The stable HEK-hCRF2 cell line is used to prepare membranes and binding reactions (200 A1) are set up as follows: 50 ul of ^125I-sauvagine (0.2 nM final concentration), 501 compound and 100 μl CRF2 membrane (25 μg/reaction). The reactions are incubated at room temperature for 2 hours and then terminated by filtration through pre-treated FB Millipore glass fiber filter plates (96 well). The plates are washed twice with ice-cold assay buffer (50 mM tris, 12.5 mM NaCl, 1 mM EDTA, 10 mM MgCl2, 0.05% BSA, pH 7.2), air dried over night and counted with 100 μl Microscint 40 in a MicroBeta counter. Non-specific binding (NSB) is determined in the presence of 0.5 μM non-labeled sauvagine. Alternatively, compounds are evaluated using a Scintillation Proximity assay. […] Bound radioactivity is assessed using a Wallac Trilux scintillation counter. Binding is assessed typically using triplicate determinations and the median data points plotted by Graph Pad Prism. […]

Consider `CCCCN(CC)c1nc(C)nc2c1c(C)cn2-c1c(C)cc(C)cc1C` [CP154526], for which, in data set [1], the clearance was determined as 83 mL/min/kg and the “rat Vdist” value was found to be 114 L/kg.

On to `CCC(CC)c1cc(C)nn2c(-c3sc4ccc(F)cc4c3C)c(C)nc12` [Example 1, 8-(1-ethyl-propyl)-2,6-dimethyl-3-(5-fluoro-3-methyl-benzo[b]thiophen-2-yl)-imidazo[1,2-b]pyridazine], for which, in data set [1], the clearance is 9 mL/min/kg and the “rat Vdist” value worked out at 8 L/kg. For the same compound, at human CRF1, the Ki worked out at 16.3 nM.

With `CCC(CC)c1cc(C)nn2c(-c3sc4ccccc4c3C)c(C)nc12` [Example 2, 8-(1-ethyl-propyl)-2,6-dimethyl-3-(3-methyl-benzo[b]thiophen-2-yl)-imidazo[1,2-b]pyridazine], the clearance in “in vivo” is 12 mL/min/kg. For the same compound, the “rat Vdist” value in data set [2] amounted to 10 L/kg.

Turning to `CCC(CC)c1cc(C)nn2c(-c3cc4cc(F)ccc4n3C)c(C)nc12` [Example 8, 8-(1-ethyl-propyl)-2,6-dimethyl-3-(5-fluoro-1-methyl-indol-2-yl)-imidazo[1,2-b]pyridazine], the clearance in the data set “in vivo” worked out at 29 mL/min/kg. In addition, in data set [2], the “rat Vdist” value is 17 L/kg.

Turning to `CCC(CC)c1cc(C)nn2c(-c3cc4ccc(Cl)cc4n3C)c(C)nc12` [Example 34, 3-(6-chloro-1-methyl-1H-indol-2-yl)-8-(1-ethyl-propyl)-2,6-dimethyl-imidazo[1,2-b]pyridazine], the 50% effective dose (ED50) in data set [3] was 5.5 mg/kg. In “in vivo”, the clearance worked out at 14 mL/min/kg. Further, the “rat Vdist” value in data set [2] amounted to 15 L/kg.

`CCC(CC)c1cc(C)nn2c(-c3c(C)oc4c(C(C)(C)O)cccc34)c(C)nc12` [Example 88, 2-{3-[8-(1-ethyl-propyl)-2,6-dimethyl-imidazo[1,2-b]pyridazin-3-yl]-2-methyl-benzofuran-7-yl}-propan-2-ol]: at human CRF2, the inhibition at 50 µM came to 27 ± 3%. The Ki at human CRF1 was 19.2 ± 4.8 nM.

On to `CCCN(CCC)c1cc(C)nc2c(-c3cnc(N(C)C)cc3C)c(C)nn12` [NBI30775], for which the “rat Vdist” value in data set [1] stood at 76 L/kg.
